Measured values reported in publication PMC3813006 (Bioorganic & medicinal chemistry, 2009).
Each block holds one molecule with its values, some of them ahead of it.

How the values were obtained:
[1] = system: Trypanosoma brucei rhodesiense STIB900; experiment: In vitro antitrypanosomal assay, T. b. r. STIB900; assay type: cell-based; conditions: RHODESIENSE|STIB900, read-out: T. b. r. IC50
Plasmodium falciparum K1 = experiment: microbe, parasite or virus in culture; conditions: K1, read-out: P. f. IC50
[2] = Cytotoxicity in cultured L6 rat myoblast cells; assay type: cell-based; conditions: rat, L6 rat myoblast cells
L6 rat myoblast cells = experiment: Cytotoxicity in cultured L6 rat myoblast cells; assay type: cell-based; conditions: read-out: Cytotoxicity IC50; cultured L6 rat myoblast cells

IC50 [1]: 6.5 nM
IC50 (Plasmodium falciparum K1): 6.5 nM
Compound: N=C(N)c1ccc(-c2ccc(-c3ccc(C(=N)N)cn3)o2)cc1 [3a, azafuramidine]

Compound: N=C(N)c1ccc(-c2ccc(-c3ccc(C(=N)N)cc3)cc2)cc1 [6a]
IC50 [2]: 22.1 µM

Compound: N=C(N)c1ccc(-c2ccc(-c3ccc(C(=N)N)cc3)nn2)cc1 [15b]
IC50 (L6 rat myoblast cells): 31.3 µM
